Where two headings read alike, the source gives them in different places. One block for each molecule: values may come before it.
Columns and labels:
[1] = cited from earlier work
[2] = at room temperature; cited from earlier work
MCT animals = MCT animals with a cardiac defect, echocardiography; format: in vivo; conditions: 100 mg/Kg PO BID, Day 14 to Day 27, PH phenotype not induced
Protocol: To test the impact of SMi on cardiac function, MCT animals with a cardiac defect were treated with SMi or sildenafil as follows (1) Non-MCT vehicle PO BID; (2) MCT+vehicle PO BID (3) MCT+SMi 100 mg/Kg PO BID (4) MCT+sildenafil 10 mg/Kg PO BID (5) MCT+sildenafil 30 mg/Kg PO BID (6) MCT+sildenafil 100 mg/Kg PO BID. Pulmonary hypertension phenotype was not induced in this study (MCT causes both vascular and cardiac injury). Treatment with SMi, vehicle or sildenafil was administered, twice a day, from Day 14 to Day 27. Echocardiogram monitoring of the progression of the disease was carried out on Day 0, Day 14 and on surgery day (Day 28) for all the animals. Blood samples were taken on Day 0, Day 14 and Day 28. Pulmonary artery maximum velocity, cardiac output, stroke volume, right ventricle anterior wall thickness and pulmonary artery acceleration time were determined. […] The data were used to calculate the cardiac output and the stroke volume as follows: The cardiac output was calculated using the following formula (JF Lewis et al. 1984): Cardiac output=heart rate×VTI((pulmonary artery diameter^2×3.1416)/4) The stroke volume was calculated using the following formula: Stroke volume=cardiac output/heart rate

PAB rats = test: Pulmonary Arterial Banding (PAB) rat model; format: in vivo
Protocol: Animals were divided into three study groups as follows: • (1) Control group/Sham (n=5) • (2) PAB+PBS vehicle orally twice a day (BID) (n=10) • (3) PAB+SMi at 100 mpk orally BID (n=10)
Pulmonary arterial constriction was surgically performed in rats at day 0. Beginning in week 4 following surgery, animals were exposed to vehicle or SMi treatment. Weekly echocardiography was performed from surgery to week 10. After a total of 10 weeks, animals were subjected to RV catheterization.
PAB rats were subjected to right heart catheterization (RHC) (using standard techniques and while the subject is in steady state). Treatment with integrin α5β1 inhibitor, SMi improved cardiac output, stroke volume, RVSP and RVEPD.

MCT rats = test: Monocrotaline (MCT) rat pulmonary hypertension model; format: in vivo
Protocol: MCT Animals were divided into study groups as follows: • (1) Non-MCT vehicle orally twice a day (BID) (n=6) • (2) MCT+PBS vehicle orally twice a day (BID) (n=8) • (3) MCT+SMi at 100 mpk orally BID (n=8)
MCT (60 mg/kg) was administered by subcutaneous injection. Animals were exposed to vehicle or SMi treatment for 2 weeks. Blood, RV and lung analysis was performed. Cells were assessed for expression of EVG, αSMA, PCNA, and C3C. […] FIG. 12A-12D show exemplary results of treatment with SMi in MCT rats. Occlusion score (FIG. 12A), vascular remodeling (FIG. 12B), apoptosis (FIG. 12C) and proliferation (FIG. 12D) were measured.
MCT animals were treated with SMi alone or in combination with SoC therapy (Macitentan (1 mg/kg)+Tadalafil (10 mg/kg) daily). MCT Animals were divided into study groups as follows: • (1) Non-MCT vehicle orally twice a day (BID) (n=6) • (2) MCT+PBS vehicle orally twice a day (BID) (n=8) • (3) MCT+SMi at 100 mpk orally BID (n=8) • (4) MCT+SMi at 100 mpk orally BID+SoC (Macitentan (1 mg/kg)+Tadalafil (10 mg/kg) daily (n=8).
MCT (60 mg/kg) was administered by subcutaneous injection at day 0. Beginning in week 3, animals were exposed to vehicle or SMi treatment for 2 weeks. (FIG. 23A) Blood, RV and lung analysis was performed.
To determine the selectivity of SMi for α5β1, MCT animals were prepared as described above and treated with SMi or a dual inhibitor of α5β1/αvβ1 (MRT).

[3] = tested on: Primary rat cardiomyocytes; test: PE-induced cardiomyocyte hypertrophy; format: cell-based; conditions: 100 μM PE; 0.25 μM, 1 μM, and 4 μM
Protocol: Primary rat cardiomyocytes were treated with 50 μM, 100 μM, or 200 μM, phenylephrine (PE). Expression of ITGα5, ITGαV, ITGβ1, ITGβ3, ITGβ5 were determined by western blot (FIG. 21A). Cells treated with 100 μM PE were simultaneously exposed to integrin α5β1 inhibitor SMi at 0.25 μM, 1 μM, and 4 μM.

SuHx rats = test: Sugen/Hypoxia (SuHx) induced PAH rat model; format: in vivo
Protocol: Broad-spectrum pharmacological inhibition of α5β1 improves hemodynamics and vascular remodeling in Su/Hx rats with established PAH alone or in combination with standard of care.
Animals were injected with 20 mg/kg Sugen 5416 at day 0 and subjected to hypoxia conditions (10% oxygen) for 3 weeks. Echocardiography was performed at the start of treatment with integrin α5β1 inhibitors at week 3 and at week 5. Right heart catheterization was performed at the end of week 5. Tissues were harvested for analysis.

SuHx mice = test: Sugen/hypoxia (SuHx) mice model of PAH; format: in vivo, mouse; conditions: SMi 100 mpk PO BID, 339.1 10 mpk IP 3x week
Protocol: SuHx treated mice were prepared as described above and treated with integrin α5β1 antibody inhibitors (e.g., anti-mouse integrin α5β1 clone 339.1) or SMi. anti-mouse integrin α5β1 clone 339.1 is described in Bhaskar, V., Zhang, D., Fox, M. et al. A function blocking anti-mouse integrin α5β1 antibody inhibits angiogenesis and impedes tumor growth in vivo. J Transl Med 5, 61 (2007). doi.org/10.1186/1479-5876-5-61), which is hereby incorporated by reference in its entirety.
Mice were injected with 20 mg/kg Sugen 5416 (vascular endothelial growth factor receptor inhibitor) at day 0, day 7 and day 14 and subjected to hypoxia conditions (10% oxygen) for 3 weeks. Echocardiography was performed at the start of treatment with integrin α5β1 inhibitors at week 3 (e.g., day 21) and at the end of week 5. Right heart catheterization was performed at the end of week 5.
Cardiac function was measured including improved cardiac output, and stroke volume. Other features including media cell wall thickness, vascular remodeling, proliferation, and apoptosis were measured.
Mice were divided into the following treatment and control groups: • Control group (n=5) • Vehicle PO BID (n=10) • SMi 100 mpk PO BID (n=10) • Macitentan 15 mpk PO BID (n=15) • IgG isotype control10 mpk IP (3× week) (n=15) • 339.1 10 mpk IP (3× week) (n=15) • 339.1 10 mpk IP+Macitentan 15 mpk PO BID (n=15)

Human PAH-RVFbs = test: PAH-RVFbs proliferation and activation; format: cell-based; conditions: 0.25 μM, 1 μM, and 4 μM
Protocol: PAH patient samples were assessed for expression of fibronectin binding integrins. […] Human PAH-RVFbs were treated with integrin α5β1 inhibitor SMi at 0.25 μM, 1 μM, and 4 μM. […] (FIGS. 22A and 22B).

PAH-PASMCs = test: Proliferation (Ki67) and apoptosis (annexin V) of PAH-PASMCs on Fb-coated plates; format: cell-based, human; conditions: 0.25 μM, 1 μM, and 4 μM on Fb-coated plates
Protocol: Integrin α5β1 inhibitors (MRT, SMi, P1D6, or M200) were assessed for proliferation and apoptosis on Fb-coated plates. FIG. 5A-5C show exemplary proliferation (Ki67) and apoptosis (annexin V) of PAH-PASMCs treated with integrin α5β1 inhibitors (MRT, SMi, P1D6, or M200).
PAH-PASMCs were treated with integrin α5β1 inhibitor SMi at 0.25 μM, 1 μM, and 4 μM on Fb-coated plates. Cells were evaluated by Western blot analysis to determine expression levels of ITGα5, ITGαV, ITGβ1, p-FAK, MCM2, PLK1, p-ERK, ERK, PCNA and Survivin in hPASMCs (FIG. 6A-6B).

hPASMCs = test: hPASMC proliferation on fibronectin-coated plates; format: cell-based, human; conditions: fibronectin-coated 96 well plate, up to 5 days
Protocol: Antibody integrin α5β1 inhibitors were evaluated to determine whether integrin α5β1 inhibitors (e.g., P1D6 antibody or M200 antibody) could impair proliferation. Cells were seeded at 3000 cells/well in a 96 well plate coated with fibronectin. The next day integrin α5β1 inhibitor treatments were added and proliferation was monitored for up to 5 days.

[4] = target: integrin α5β1 on hPASMCs (human) (UniProt P08648); test: cell-based or functional assay
Sequence of integrin α5β1 on hPASMCs (human) (P08648 42-1049, chain 1 of 2): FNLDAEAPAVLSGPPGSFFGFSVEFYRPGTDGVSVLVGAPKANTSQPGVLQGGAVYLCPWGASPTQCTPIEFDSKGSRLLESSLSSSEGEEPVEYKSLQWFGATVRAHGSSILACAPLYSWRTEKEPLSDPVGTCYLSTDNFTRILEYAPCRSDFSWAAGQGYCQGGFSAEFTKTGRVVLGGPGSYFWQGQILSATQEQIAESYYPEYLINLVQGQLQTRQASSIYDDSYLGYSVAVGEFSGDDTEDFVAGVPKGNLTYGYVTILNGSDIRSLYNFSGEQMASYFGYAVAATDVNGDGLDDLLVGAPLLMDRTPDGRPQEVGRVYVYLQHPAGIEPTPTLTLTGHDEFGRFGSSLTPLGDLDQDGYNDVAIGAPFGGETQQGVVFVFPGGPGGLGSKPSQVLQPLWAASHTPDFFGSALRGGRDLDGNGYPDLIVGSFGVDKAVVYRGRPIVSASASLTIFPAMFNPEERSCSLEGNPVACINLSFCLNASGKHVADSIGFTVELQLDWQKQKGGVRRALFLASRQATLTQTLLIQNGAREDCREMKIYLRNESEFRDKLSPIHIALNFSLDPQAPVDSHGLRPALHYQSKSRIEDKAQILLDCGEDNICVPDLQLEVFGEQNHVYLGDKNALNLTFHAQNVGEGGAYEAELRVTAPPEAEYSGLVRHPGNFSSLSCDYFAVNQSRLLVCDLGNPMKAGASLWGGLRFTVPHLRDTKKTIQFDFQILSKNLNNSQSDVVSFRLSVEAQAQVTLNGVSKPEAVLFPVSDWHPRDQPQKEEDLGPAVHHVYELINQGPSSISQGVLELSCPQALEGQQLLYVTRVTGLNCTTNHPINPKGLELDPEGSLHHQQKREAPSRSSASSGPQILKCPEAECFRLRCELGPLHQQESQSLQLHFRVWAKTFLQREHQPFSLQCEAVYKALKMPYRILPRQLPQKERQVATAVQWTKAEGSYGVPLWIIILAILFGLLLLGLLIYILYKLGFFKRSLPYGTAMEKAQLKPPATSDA
Sequence of integrin α5β1 on hPASMCs (human) (P05556 21-798, chain 2 of 2, further chain): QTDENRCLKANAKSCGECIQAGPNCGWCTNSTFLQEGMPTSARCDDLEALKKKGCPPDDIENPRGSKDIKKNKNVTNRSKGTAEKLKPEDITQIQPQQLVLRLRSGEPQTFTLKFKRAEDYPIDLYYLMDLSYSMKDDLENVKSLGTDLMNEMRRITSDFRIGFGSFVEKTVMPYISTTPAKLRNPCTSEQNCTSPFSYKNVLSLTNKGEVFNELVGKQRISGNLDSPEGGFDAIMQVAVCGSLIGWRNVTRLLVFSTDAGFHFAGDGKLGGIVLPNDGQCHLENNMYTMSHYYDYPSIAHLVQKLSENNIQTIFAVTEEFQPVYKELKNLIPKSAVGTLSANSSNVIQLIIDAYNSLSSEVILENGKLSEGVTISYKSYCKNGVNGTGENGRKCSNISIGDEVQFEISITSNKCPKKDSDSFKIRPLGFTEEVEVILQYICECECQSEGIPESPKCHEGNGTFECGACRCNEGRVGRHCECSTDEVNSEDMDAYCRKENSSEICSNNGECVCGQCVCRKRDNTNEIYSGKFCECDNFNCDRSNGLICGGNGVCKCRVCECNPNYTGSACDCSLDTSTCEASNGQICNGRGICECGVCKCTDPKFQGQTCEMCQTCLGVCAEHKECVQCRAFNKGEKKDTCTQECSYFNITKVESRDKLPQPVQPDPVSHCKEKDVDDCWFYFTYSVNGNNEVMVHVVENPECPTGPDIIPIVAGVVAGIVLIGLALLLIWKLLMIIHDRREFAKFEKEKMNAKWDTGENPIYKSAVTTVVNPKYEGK

[5] = target: rat α5β1 (cells expressing rat α5β1) (rat); test: cell-based or functional assay
[6] = target: rat α5β1 (cells expressing rat α5β1) (rat, UniProt A0A0G2K1E2 94-1099; P49134 21-798); test: cell-based or functional assay

Molecule: CCCCC[C@H](O)/C=C/[C@@H]1[C@H]2C/C(=C/CCCC(=O)O)O[C@H]2C[C@H]1O [Flolan, epoprostenol]
half-life ([1]; in vivo): 0.05 to 0.083 h
stability [2]: 8 h

Molecule: Cc1nn(C)c2c(C(C(=O)O)N3CC(OCCCCc4ccc5c(n4)NCCC5)C3)cccc12 (stereo not drawn) [SMi]
cardiac output (MCT animals): considerable increase
hypertrophy and right ventricle (RV) fibrosis (PAB rats; 100 mpk orally BID): improved
cardiac function over time compared to vehicle control (PAB rats; echocardiography): directly improved cardiac function
RVEPD (PAB rats; right heart catheterization): improved
RVSP (PAB rats; right heart catheterization): improved
cardiac output (PAB rats; right heart catheterization): improved
stroke volume (PAB rats; right heart catheterization): improved
cardiac function vascular remodeling (EVG, media wall thickness, mPAP, cardiac output, RVFAC) (MCT rats): improved cardiac function vascular remodeling
vascular remodeling (MCT rats; 100 mpk orally BID, 2 weeks): improved vascular remodeling
hypertrophy and right ventricle (RV) fibrosis (MCT rats; SMi alone or in combination with SoCs): improved
vascular remodeling (MCT rats; SMi alone or with Maci (1 mg/kg) + Tada (10 mg/kg)): improved vascular remodeling
PE-induced adult rat cardiomyocytes hypertrophy [3]: prevents PE-induced adult rat cardiomyocytes hypertrophy
apoptosis (SuHx rats; SMi and/or SoCs): improved
fibrosis (SuHx rats; SMi and/or SoCs): reduced
hypertrophy (SuHx rats; SMi and/or SoCs): reduced
media cell wall thickness (SuHx rats; SMi and/or SoCs): improved
proliferation (SuHx rats; SMi and/or SoCs): improved
stroke volume (SuHx rats; SMi and/or SoCs): improved
vascular remodeling (SuHx rats; SMi and/or SoCs): improved
cardiac output (SuHx rats; SMi and/or SoCs (Macitentan, Tadalafil)): improved
cardiac and vascular improvement (SuHx mice): cardiac and vascular improvement
PAH-RVFbs proliferation and activation (Human PAH-RVFbs): decreases PAH-RVFbs proliferation and activation in a dose dependent manner
apoptosis (annexin V) (PAH-PASMCs): increased apoptosis
proliferation (Ki67) (PAH-PASMCs): impaired proliferation

Molecule: CN1CC(=O)N2[C@H](c3ccc4c(c3)OCO4)c3[nH]c4ccccc4c3C[C@@H]2C1=O [Tadalafil, tadalafil]
half-life ([1]; in patients with PAH): 35 h

Molecule: M200: integrin α5β1 antibody, heavy chain SEQ ID NO: 1, light chain SEQ ID NO: 2
proliferation of hPASMCs (hPASMCs): reduced proliferation

reduction of hPASMCs proliferation [4]: 70%
IC50 (nM), cell adhesion assay [5]: 5.6 nM
IC50 (ug/ml), cell adhesion assay [5]: 0.84 µg/mL
Molecule: P1D6 (antibody)

IC50 (nM), cell adhesion assay [6]: 6.8 nM
IC50 (ug/ml), cell adhesion assay [6]: 1 µg/mL
B1: volociximab (M200) (antibody, human IgG4, kappa, V domains shown)
VH: QVQLKESGPGLVAPSQSLSITCTISGFSLTDYGVHWVRQPPGKGLEWLVVIWSDGSSTYNSALKSRMTIRKDNSKSQVFLIMNSLQTDDSAMYYCARHGTYYGMTTTGDALDYWGQGTSVTVSS
VL: QIVLTQSPAIMSASLGERVTMTCTASSSVSSNYLHWYQQKPGSAPNLWIYSTSNLASGVPARFSGSGSGTSYSLTISSMEAEDAATYYCHQYLRSPPTFGGGTKLEIKR
